Assay results published in patent US5378716A, “Pyrazol-1-yl phenoxyacetic acid compounds which have useful pharmaceutical utility” (Ono Pharmaceutical Co., Ltd., priority 1992, dated 1995).

Experiments:
[1] = target: T1, PGI2 receptor in the human blood platelet membrane fraction (Homo sapiens, UniProt P43119); experiment: Inhibitory activity on binding of [^3 H]-iloprost to PGI2 receptor in the human blood platelet membrane fraction; details: 10 nM [^3 H]-iloprost, human blood platelet membrane fraction (0.3 mg protein), pH 7.4, 24° C., 30 min; read-out: IC50, inhibition of [^3 H]-iloprost binding to PGI2 receptor
T1 construct: human blood platelet membrane fraction (0.3 mg protein) was added; from tissue; host or cells: human blood platelets (membrane fraction)
Protocol: i) Inhibitory activity on binding of [^3 H]-iloprost to PGI2 receptor in the human blood platelet membrane fraction
50 mM Tris-HCl buffer (pH 7.4) containing 15 mM MgCl2, 5 mM EDTA and 10 nM [^3 H]-iloprost were used as reaction medium. To 0.2 ml of the reaction medium, human blood platelet membrane fraction (0.3 mg protein) was added with or without a test compound. The mixture was incubated at 24° C. for 30 min. After incubation, 4 ml of ice-cold 10 mM Tris-HCl buffer (pH 7.4) was added to the reaction mixture, the mixture was filtered through Whatman GF/B glass fiber filter and washed 4 times with 4 ml of ice-cold 10 mM Tri-HCl buffer (pH 7.4) to separate bound and free [^3 H]-iloprost. After washing, the filter was dried and radioactivity was counted. Non-specific binding was obtained by performing parallel binding experiments in the presence of 10 μM non-labelled iloprost. Specific binding was calculated by subtracting the non-specific binding from the total binding.
The inhibitory effect of a test compound was calculated from the following equation.
The percentage of inhibition (%)=100-(B1 /B0 ×100)
B1 :specific [^3 H]-iloprost binding in the presence of a test compound
B0 :specific [^3 H]-iloprost binding in the absence of a test compound

[2] = system: human blood platelet aggregation; experiment: Inhibitory effect on human blood platelet aggregation (ADP-induced, platelet-rich plasma); format: cell-based; details: human PRP (5×10^5 platelets/mm^3), compound added 1 minute prior to ADP (4 μm), read-out: IC50, inhibition of human blood platelet aggregation
Protocol: ii) Inhibitory effect on human blood platelet aggregation
Platelet-rich plasma (PRP) was prepared from human blood (5×10^5 platelets/mm^3) and a test compound was added to PRP 1 minute prior to the addition of ADP (4 μm). The aggregation was monitored using a platelet aggregometer (NBS HEMA TRACER 601, Niko Bioscience, Japan).

T1 sequence (P43119 whole entry): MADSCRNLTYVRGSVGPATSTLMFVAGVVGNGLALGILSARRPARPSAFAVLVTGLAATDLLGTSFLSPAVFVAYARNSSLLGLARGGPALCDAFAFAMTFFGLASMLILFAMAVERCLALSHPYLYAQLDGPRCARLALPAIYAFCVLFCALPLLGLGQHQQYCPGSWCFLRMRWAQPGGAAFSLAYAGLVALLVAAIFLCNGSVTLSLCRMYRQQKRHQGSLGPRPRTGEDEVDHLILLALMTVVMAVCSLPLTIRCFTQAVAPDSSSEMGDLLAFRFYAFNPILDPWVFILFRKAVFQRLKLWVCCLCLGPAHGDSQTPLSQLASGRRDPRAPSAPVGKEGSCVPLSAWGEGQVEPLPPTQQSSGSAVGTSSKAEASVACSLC

SMILES	IC50 [1] [nM]	IC50 [2] [nM]
O=C(O)COc1cccc(CCCC(=O)N(Cc2ccccc2)Cc2ccccc2)c1 [8(l), 3-[3-(N,N-Dibenzylaminocarbonyl)propyl]phenoxyacetic acid]	1500	
O=C(O)COc1cccc(OCCn2cc(C(c3ccccc3)c3ccccc3)cn2)c1 [17(cc), 3-[2-(4-Diphenylmethylpyrazol-1-yl)ethyloxy]phenoxyacetic acid]	260	410
O=C(O)COc1cccc(/C=C/Cn2cc(C(c3ccccc3)c3ccccc3)cn2)c1 [17(i), 3-[3-(4-Diphenylmethylpyrazol-1-yl)-1-propenyl]phenoxyacetic acid]	220	
O=C(O)COc1ccccc1CCCCn1cc(C(c2ccccc2)c2cccnc2)cn1 (stereo not drawn) [17(n)]	2000	
O=C(O)COc1cccc(CCCC=NOC(c2ccccc2)c2ccccc2)c1 [Example 2, 3-(4-Diphenylmethyloxyiminobutyl)phenoxyacetic acid]	4800	
CCCC(CCCc1cccc(OCC(=O)O)c1)=NOC(c1ccccc1)c1ccccc1 [Example 4, 3-(4-Diphenylmethyloxyiminoheptyl)phenoxyacetic acid]	1600	3700
CCCC(CCCc1cccc(OCC(=O)O)c1)NOC(c1ccccc1)c1ccccc1 (stereo not drawn) [Example 6, 3-(4-Diphenylmethyloxyaminoheptyl)phenoxyacetic acid]	3000	
O=C(O)COc1cccc(CCCc2cc(C(c3ccccc3)c3ccccc3)on2)c1 [Example 19, 3-[3-(5-diphenylmethylisoxazol-3-yl)propyl]phenoxyacetic acid]	120	160

Second part, the molecule after the results:

IC50 [1] [nM]	IC50 [2] [nM]	SMILES
2000	3100	O=C(O)COc1cccc(CCCC(=O)NC(c2ccccc2)c2ccccc2)c1 [8(n), 3-(3-Diphenylmethylaminocarbonylpropyl)phenoxyacetic acid]
460	970	O=C(O)COc1cccc(CCCC(=O)NN(c2ccccc2)c2ccccc2)c1 [8(o), 3-[3-[(N,N-Diphenylamino)aminocarbonyl]propyl]phenoxyacetic acid]
360	240	O=C(O)COc1cccc(CCCn2ncc(C(c3ccccc3)c3ccccc3)n2)c1 [17(b), 3-[3-(4-Diphenylmethyl-1,2,3-triazol-2-yl)propyl]phenoxyacetic acid]
270	470	O=C(O)COc1cccc(CCCn2cc(C(c3ccccc3)c3ccccc3)nn2)c1 [17(c), 3-[3-(4-Diphenylmethyl-1,2,3-triazol-1-yl)propyl]phenoxyacetic acid]
780	3200	Cc1c(/C=C/Cn2cc(C(c3ccccc3)c3ccccc3)cn2)cccc1OCC(=O)O [17(s), 2-Methyl-3-[3-(4-diphenylmethylpyrazol-1-yl)-1-propenyl]phenoxyaceticacid]
5000		O=C(O)COc1cccc(CCCON=C(c2ccccc2)c2cccnc2)c1 [17(x), 3-[3-[1-Phenyl-1-(3-pyridyl)methylideneaminooxy]propyl]phenoxyacetic acid]
1300	5000	O=C(O)COc1cccc(CCCCOC(c2ccccc2)c2ccccc2)c1 [Example 12, 3-(4-Diphenylmethyloxybutyl)phenoxyacetic acid]
4000		COC(=O)COc1cccc(CCCC(=O)OC(c2ccccc2)c2ccccc2)c1 [Example 15, Methyl 3-(3-diphenylmethyloxycarbonylpropyl)phenoxyacetate]
150	420	O=C(O)COc1cccc(CCCn2cc(C(c3ccccc3)c3ccccc3)cn2)c1 [Example 17, 3-[3-(4-diphenylmethylpyrazol-1-yl)propyl]phenoxyacetic acid]
4400		O=C(O)COc1cccc(CCCc2nc(C(c3ccccc3)c3ccccc3)no2)c1 [Example 21, 3-[3-(3-diphenylmethyl-1,2,4-oxadiazol-5-yl)propyl]phenoxyacetic acid]
1500	370	O=C(O)COc1cccc(CCCc2noc(C(c3ccccc3)c3ccccc3)n2)c1 [Example 23, 3-[3-(5-diphenylmethyl-1,2,4-oxadiazol-3-yl)propyl]phenoxyacetic acid]
